Measured values taken from PMC6251916, “CKD-506, a novel HDAC6-selective inhibitor, improves renal outcomes and survival in a mouse model of systemic lupus erythematosus” (Scientific Reports, 2018).

Key:
[1] = test system: HDAC6 and HDAC1; parameters: method as in PMID 22262760; conditions: cited from earlier work
[2] = parameters: method as in PMID 27646843; conditions: cited from earlier work
[3] = test system: NZB/W F1 female mice; assay: Murine SLE model: survival, severe proteinuria, UP/C; type: in vivo, mouse; conditions: methylprednisolone 5 mg/kg/day i.p.
Method: (§1) Survival had been monitored until 42 weeks of age.
During the experiments, urine protein levels had been measured every 2 weeks. Fresh urine was collected by performing abdominal massages. Urine protein was measured with the Coomassie Brilliant Blue method as described in our previous study. Urine creatinine was measured using a DRI-CHEM 3000 Colorimetric analyzer (Fujifilm, Tokyo, Japan) with the urine diluted in deionized water (1:100 dilution).

[4] = test system: NZB/W F1 female mice; assay: Murine SLE model: BUN and anti-dsDNA antibody levels; type: in vivo, mouse; conditions: methylprednisolone 5 mg/kg/day
Method: as §1
Blood samples had been collected from mice under isoflurane anesthesia every 4 weeks (at 24, 28, 32, 36, 40 weeks of age and autopsy), and the obtained serum samples had been kept at −70 °C until the analysis.

[5] = test system: NZB/W F1 female mice; assay: Murine SLE model: kidney histopathology (H&E, PAS, Masson trichrome); type: in vivo, mouse; conditions: methylprednisolone 5 mg/kg/day
From the text: as §1
Kidneys were harvested from mice at the end of the study (at 43–44 weeks of age). For light microscopy, the tissues were fixed in 10% neutral buffered formalin, embedded in paraffin wax, sectioned at a thickness of 5 μm and stained with H&E (BBC Biochemical, Mount Vernon, WA, USA). Periodic acid/Schiff (PAS stain kit, BBC Biochemical) staining and Masson trichrome (BBC Biochemical) staining were used for the detection of […] and fibrosis, respectively. Inflammatory cell infiltration and mesangial proliferation were scored on a 4-point scale as 0 (none), 1+ (mild), 2+ (moderate), 3+ (moderate to severe) and 4+ (severe).

[6] = test system: NZB/W F1 female mice; assay: Murine SLE model: flow cytometry of splenocytes; type: in vivo, mouse; conditions: methylprednisolone 5 mg/kg/day
From the text: Single cell suspensions were obtained from the spleens of NZB/W F1 mice at autopsy (at 43–44 weeks of age). The splenocytes were stained with PerCP-Cy5.5-conjugated anti-mouse CD3e (PerCP-cy5.5-CD3e, eBioscience, San Diego, CA, USA), fluorescein isothiocyanate (FITC)-conjugated anti-mouse CD4 (FITC-CD4, BD Biosciences, San Jose, CA, USA), PE-cyanine7-conjugated anti-mouse CD8a (eBioscience), allo-phycocyanin (APC)-conjugated anti-mouse CD25 (BD Biosciences) and PE-conjugated anti-mouse CD138 (BD Biosciences).
T cell profile was analyzed as described previously; briefly, we examined proportions of Th1 cells (CD4^+CD25^+T-bet^+), Th2 cells (CD4^+CD25^+GATA-3^+), Th17 cells (CD4^+CD25^+ROR-γt^+), and Treg cells (CD4^+CD25^+Foxp3^+). To analyze T helper subsets, the splenocytes were stained with antibodies to CD4 and CD25 (FITC-conjugated anti-mouse CD4 and APC-conjugated anti-mouse CD25, BD Biosciences). Cells were fixed and permeabilized prior to staining with T-bet, GATA-3, ROR-γt and Foxp3 antibodies (PE-, BD Biosciences).

[7] = test system: NZB/W F1 female mice; assay: Murine SLE model: serum cytokine levels (Milliplex); type: in vivo, mouse
Method: Serum samples were assayed using Milliplex® MAP Kits (Millipore) for granulocyte macrophage-colony stimulating factor (GM-CSF), interferon-γ (IFN-γ), interleukin-1α (IL-1α), IL-1β, IL-10, IL-12(p70), IL-15, IL-17a, IL-2, IL-4, IL-6, tumor necrosis factor α (TNF-α), transforming growth factor beta 1 (TGF-β1), IL-22, IL-23, IFN-inducible protein 10 (IP-10 (CXCL10)) and chemokine (C-C motif) ligand 2 (CCL2 (MCP-1)).

[8] = test system: NZB/W F1 female mice; assay: Murine SLE model: cytokine levels in kidney extracts; type: in vivo, mouse; conditions: group P: methylprednisolone 5 mg/kg/day; at autopsy; mean ± SD; n = 13
Method: The kidneys were weighed and then transferred into dPBS (Welgene) supplemented with anti-protease Complete TM cocktail (Boehringer) using 12.5 μl of dPBS per milligram of wet weight tissue. Samples were homogenized twice using an Automill TK-AM5 freeze-crushing cell homogenizer (W 280 mm × D 390 mm × H 290 mm, Tokken Inc., Chiba, Japan) at 1,400 rpm for 90 seconds and then centrifuged at 16,000 × g for 15 min at 4 °C. The supernatants were collected and total protein concentrations were determined in the kidney extracts using a bicinchoninic acid (BCA) protein assay kit™ (Pierce). Total protein concentrations of the kidney extracts were adjusted to 2 mg/dl and used for the analysis of IFN-γ, IL-10, IL-15, IL-17, IL-1β, IL-4, IL-6, IP-10, MCP-1, CCL4, RANTES, TNF-α and sCD40L with Milliplex® MAP Kits (Millipore).

[9] = test system: NZB/W F1 female mice; assay: Murine SLE model: serum chemistry and necropsy; conditions: group P: methylprednisolone 5 mg/kg/day; serum at autopsy; mean ± SD
Method: Control mice received 150 μL of vehicle (Ethanol: Kolliphor® EL: saline = 1:1:8) and were subjected to the same schedule. Survival rate and incidence of severe proteinuria (percent individual mice with urine protein ≥300 mg/dL) were calculated. Survival had been monitored until 42 weeks of age.

[10] = group P: methylprednisolone 5 mg/kg/day, at autopsy, mean ± SD, n = 13

For `O=C(CCCCCCNC(=O)c1cnc(N(c2ccccc2)c2ccccc2)nc1)NO` [ACY-1215], the “selectivity for HDAC6 and HDAC1 at IC50” value [1] is given as 11 fold and the “significant adverse effects reported in clinical trials” value [2] is given as “grade 3 anemia and neutropenia”.
With `C[C@H]1C[C@@H]2[C@H]([C@@H](O)C[C@@]3(C)[C@H]2CC[C@]3(O)C(=O)CO)[C@@]2(C)C=CC(=O)C=C12` [methylprednisolone, reference compound] the “Survival rate at the end of the study” value ([3]; 42-weeks of age) was 93.3%, the “incidence of severe proteinuria (urine protein >300 mg/dl)” value ([3]; 42 weeks of age) was 20% and the “Levels of BUN vs vehicle” value ([4]; 36 weeks of age) was “significantly lower”. For the same compound, the “Levels of BUN vs vehicle” value ([4]; at autopsy) was “significantly lower”, the “Degree of inflammatory cell infiltration in kidneys vs vehicle” value [5] was “significantly lower” and the “ratio of CD4+CD8−/CD4−CD8+ T cells in spleen vs vehicle” value [6] was “significantly lower”. For the same compound, the “fewer CD4−CD8− cells compared with group vehicle” value ([6]; spleen) was 4.3%, the “fewer CD138+ cells compared with group vehicle” value ([6]; spleen) was 16.3% and the “Serum IFN-γ” value [7, 10] was 0.07 ± 0.24 pg/mL. The “Serum IL-1α” value [7, 10] was 666.21 ± 527.20 pg/mL, the “Serum IL-1β” value [7, 10] was 0.65 ± 2.34 pg/mL and the “Serum IL-2” value [7, 10] was 0.09 ± 0.34 pg/mL. For the same compound, the “Serum IL-4” value [7, 10] was 1.49 ± 0.20 pg/mL, the “Serum IL-6” value [7, 10] was 3.36 ± 3.30 pg/mL and the “Serum IL-10” value [7, 10] was 18.41 ± 12.97 pg/mL. For the same compound, the “Serum IL-12(70)” value [7, 10] was 1.04 ± 3.76 pg/mL, the “Serum IL-15” value [7, 10] was 45.25 ± 14.91 pg/mL and the “Serum IL-17” value [7, 10] was 3.59 ± 1.73 pg/mL. For the same compound, the “Serum IL-22” value [7, 10] was 17.68 ± 16.19 pg/mL, the “Serum IL-23” value [7, 10] was 22.31 ± 61.77 pg/mL and the “Serum TGF-β1” value [7, 10] was 66067.78 ± 18777.09 pg/mL. For the same compound, the “Serum TNF-α” value [7, 10] was 1.57 ± 2.07 pg/mL, the “Mean serum levels of CCL2 vs vehicle” value ([7]; methylprednisolone 5 mg/kg/day, 36 weeks of age, difference not statistically significant) was “lower” and the “Kidney extract CCL2” value [8] was 19.91 ± 11.71 pg/mL. The “Kidney extract CCL4” value [8] was 0.60 ± 1.84 pg/mL, the “Kidney extract IFN-γ” value [8] was 16.91 ± 5.10 pg/mL and the “Kidney extract IL-1β” value [8] was 4.80 ± 2.85 pg/mL. For the same compound, the “Kidney extract IL-4” value [8] was 0.06 ± 0.08 pg/mL, the “Kidney extract IL-6” value [8] was 2.95 ± 0.59 pg/mL and the “Kidney extract IL-10” value [8] was 12.14 ± 2.02 pg/mL. For the same compound, the “Kidney extract IL-15” value [8] was 40.90 ± 9.01 pg/mL, the “Kidney extract IP-10” value [8] was 50.64 ± 15.63 pg/mL and the “Kidney extract RANTES” value [8] was 9.77 ± 15.22 pg/mL. For the same compound, the “Kidney extract TNF-α” value [8] was 0.07 ± 0.24 pg/mL and the Ca [9] was 9.35 ± 0.53 mg/dL.
